# From PubChem BioAssay (NCI)
#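 1) Cells in 96-well plates. 2) Compound, 48 h, 5 concentrations. 3) Linear interpolation between surrounding doses. 4) Unreached endpoint = highest concentration. GI50 is the concentration that inhibits growth by half. TGI denotes the concentration required for complete inhibition of growth.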
# Legend:
# Assay in all cases: NCI tumour cell line growth inhibition, 48 h
# OVCAR-3 ovarian = tested on: OVCAR-3 ovarian
# NCI-H522 lung = tested on: NCI-H522 lung
# HL-60(TB) leukemia = tested on: HL-60(TB) leukemia
# HCT-15 colon = tested on: HCT-15 colon
# LOX IMVI melanoma = tested on: LOX IMVI melanoma
# 786-0 renal = tested on: 786-0 renal
# OVCAR-4 ovarian = tested on: OVCAR-4 ovarian
# SW-620 colon = tested on: SW-620 colon
# UACC-62 melanoma = tested on: UACC-62 melanoma
# ACHN renal = tested on: ACHN renal
SMILES,GI50 (OVCAR-3 ovarian),TGI (OVCAR-3 ovarian),GI50 (NCI-H522 lung),TGI (NCI-H522 lung),GI50 (HL-60(TB) leukemia),TGI (HL-60(TB) leukemia),GI50 (HCT-15 colon),TGI (HCT-15 colon),GI50 (LOX IMVI melanoma),TGI (LOX IMVI melanoma),GI50 (786-0 renal),TGI (786-0 renal),GI50 (OVCAR-4 ovarian),TGI (OVCAR-4 ovarian),GI50 (SW-620 colon),TGI (SW-620 colon),GI50 (UACC-62 melanoma),TGI (UACC-62 melanoma),GI50 (ACHN renal),TGI (ACHN renal)
Cc1cc(S(=O)(=O)/N=C/N(C)C)c(SC(=O)c2ccc(Cl)cc2)cc1Cl,33.3 µM,91.1 µM,47.9 µM,> 100 µM,42.5 µM,> 100 µM,19.2 µM,37 µM,19.1 µM,35.2 µM,23.8 µM,67.2 µM,60.1 µM,> 100 µM,27.6 µM,72.3 µM,29.9 µM,> 100 µM,22.7 µM,47.1 µM
COC(=O)CCC1CCc2c(OC)ccc(OC)c2C1=O (stereo not given),–,> 100 µM,–,> 100 µM,–,> 100 µM,–,> 100 µM,–,> 100 µM,–,> 100 µM,–,> 100 µM,–,> 100 µM,–,> 100 µM,–,> 100 µM
N#CC1CCCCOCCOCCOCCOCCOCCCCCC1=O (stereo not given),–,> 100 µM,–,> 100 µM,–,> 100 µM,–,> 100 µM,–,> 100 µM,–,> 100 µM,–,> 100 µM,–,> 100 µM,–,> 100 µM,–,> 100 µM
O=C1C2=C(c3ccccc31)C(c1ccccc1)N1C(=O)CSC1=N2 (stereo not given),–,> 100 µM,–,> 79.8 µM,–,95.8 µM,–,98.1 µM,–,> 100 µM,–,> 100 µM,–,> 100 µM,–,> 100 µM,–,> 100 µM,–,> 100 µM
COc1cccc2c1-c1c(c3ccc([N+](=O)[O-])cc3c(=O)n1CCCN)C2=O,2.3 µM,5.71 µM,0.043 µM,1.89 µM,1.62 µM,3.93 µM,1.4 µM,3.37 µM,1.2 µM,2.64 µM,0.479 µM,0.987 µM,1.55 µM,3.94 µM,0.459 µM,3.2 µM,1.89 µM,7.95 µM,0.884 µM,6.65 µM
N[C@@H]1C(=O)N2C(C(=O)OC(c3ccccc3)c3ccccc3)=C(CCl)CS[C@H]12,26 µM,75.6 µM,31 µM,> 84.7 µM,2.46 µM,> 38.3 µM,37.9 µM,> 100 µM,24.9 µM,65 µM,39.3 µM,98.9 µM,44.8 µM,> 100 µM,36.6 µM,> 100 µM,42.7 µM,> 91.2 µM,40.2 µM,> 100 µM
O=[N+]([O-])c1ccc(Cl)c(C2CC(c3cccc4ccccc34)=Nc3ccccc3S2)c1 (stereo not given),–,51.2 µM,–,43.9 µM,–,26.2 µM,–,> 100 µM,–,59.2 µM,–,30.4 µM,–,> 100 µM,–,> 66.7 µM,–,59 µM,–,> 100 µM
O=C(/C=C/c1ccco1)c1ccc(NCc2nc3ccccc3[nH]2)cc1,–,31.1 µM,–,21.4 µM,–,30.6 µM,–,30.3 µM,–,29.8 µM,–,32.5 µM,–,56.6 µM,–,34.3 µM,–,30.2 µM,–,38.4 µM
CN(C)c1ccc(/C=C/c2ccc(/C=C/c3ccc(N(C)C)cc3)cc2)cc1,–,> 100 µM,–,> 100 µM,–,> 100 µM,–,> 100 µM,–,> 100 µM,–,> 100 µM,–,> 100 µM,–,> 100 µM,–,> 100 µM,–,> 100 µM
O=[N+]([O-])c1ccc(-c2noc(-c3ccc(Cl)cc3)c2C2=NCCN2)cc1,–,> 100 µM,–,> 100 µM,–,> 100 µM,–,> 100 µM,–,> 100 µM,–,> 100 µM,–,> 100 µM,–,> 100 µM,–,> 100 µM,–,> 100 µM
ON(Cc1ccccc1)C(=S)c1ccccc1,–,> 67 µM,–,28 µM,–,7.75 µM,–,> 100 µM,–,> 46.9 µM,–,> 100 µM,–,> 100 µM,–,> 100 µM,–,25.4 µM,–,62.1 µM
Cc1cc2cc3ccc(N(C)C)cc3nc2cc1N,0.502 µM,2.45 µM,0.612 µM,2.4 µM,0.805 µM,5.09 µM,1.4 µM,17.8 µM,0.325 µM,5.01 µM,0.597 µM,2.47 µM,0.904 µM,4.46 µM,0.334 µM,1.92 µM,0.744 µM,2.71 µM,0.423 µM,5.75 µM
Oc1ccc(-c2nc3ccc4[nH]ncc4c3c3c2CCCC3)c(F)c1,2.89 µM,7.85 µM,1.25 µM,4.72 µM,2.93 µM,8.82 µM,2.26 µM,11.3 µM,2.9 µM,12.4 µM,2.5 µM,12.1 µM,3.38 µM,16.1 µM,1.41 µM,8.29 µM,1.67 µM,4.37 µM,2.08 µM,12.5 µM
CC1=CC(=O)C(C(C)C)=CC1=Nc1cc(Br)c(O)c(Br)c1,2.68 µM,7.47 µM,4.42 µM,18 µM,3.48 µM,8.5 µM,3.85 µM,21.1 µM,5.04 µM,20.4 µM,5.03 µM,17.8 µM,6.29 µM,19.5 µM,4.18 µM,15.4 µM,2.86 µM,13.1 µM,11.6 µM,30.1 µM
CCN(CC)c1ccc(N=Nc2ccc([N+](=O)[O-])cc2OC(=O)/C=C/c2ccccc2)c(OC(=O)/C=C/c2ccccc2)c1,–,> 100 µM,–,> 100 µM,–,> 44 µM,–,> 100 µM,–,> 100 µM,–,> 100 µM,–,> 100 µM,–,> 100 µM,–,> 74.8 µM,–,> 100 µM
Cc1cc(-c2ccccc2)nc(Nc2nc3ccccc3o2)n1,–,> 100 µM,–,> 100 µM,–,> 100 µM,–,> 100 µM,–,> 100 µM,–,> 100 µM,–,> 100 µM,–,> 100 µM,–,> 100 µM,–,> 100 µM
NC(=O)c1ccccc1NC(=O)C(=O)Cc1nc2ccccc2[nH]c1=O,–,> 100 µM,–,> 100 µM,–,> 100 µM,–,> 100 µM,–,> 100 µM,–,> 100 µM,–,> 100 µM,–,> 100 µM,–,> 100 µM,–,> 100 µM
COc1cc(OC)c2nccc(NCCCN(C)C)c2c1[N+](=O)[O-],–,> 100 µM,–,> 100 µM,–,> 100 µM,–,> 100 µM,–,> 100 µM,–,> 100 µM,–,> 100 µM,–,> 100 µM,–,> 100 µM,–,> 100 µM
